Experimental data published in patent US20250215039A1, “NUCLEOSIDES FOR TREATING CANCER” (PRIMEFOUR THERAPEUTICS, INC., priority 2022, published 2025).
Where two headings read alike, the source gives them in different places.

Test system: cancer cell lines
Assay: Cancer cell proliferation activity (CellTiterGlo, 72 h)
Format: cell-based
Details: 72 h, 72 h, read-out: IC50
In short: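 Cells seeded overnight at 37 °C, then dosed with compound at 0.1% final DMSO and incubated 72 h at 37 °C (5% or 10% CO2 by medium).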

Cc1cn([C@H]2C[C@H](O)[C@@](C#N)(CO)O2)c(=O)[nH]c1=O [Cpd. No. 123, (2R,3S,5R)-3-hydroxy-2-(hydroxymethyl)-5-(5-methyl-2,4-dioxo-3,4-dihydropyrimidin-1(2H)-yl)tetrahydrofuran-2-carbonitrile]
IC50 (5637 cell line (bladder)): > 50 µM
IC50 (AS49 cell line (lung)): > 50 µM
IC50 (CLS439 cell line (bladder)): > 50 µM
IC50 (HS729 cell line (muscle)): > 50 µM
IC50 (JAR cell line (placenta)): > 50 µM
IC50 (Homo sapiens, 786-0, 72 h, 786O cell line (kidney)): > 50 µM
IC50 (Homo sapiens, A2780, 72 h, A2780 cell line (ovary)): > 50 µM
IC50 (Homo sapiens, A-375, 72 h, A375 cell line (skin)): > 50 µM
IC50 (Homo sapiens, A-431, 72 h, A431 cell line (skin)): 2.6 µM
IC50 (Homo sapiens, ASPC1, 72 h, ASPC1 cell line (pancreas)): > 50 µM
IC50 (Homo sapiens, BT-20, 72 h, BT20 cell line (breast)): > 50 µM
IC50 (Homo sapiens, CAKI-1, 72 h, CAKI1 cell line (kidney)): > 50 µM
IC50 (Homo sapiens, COLO 205, 72 h, COLO205 cell line (colon)): > 50 µM
IC50 (Homo sapiens, COLO-678, 72 h, COLO678 cell line (colon)): > 50 µM
IC50 (Homo sapiens, Ca-Ski, CASKI cell line (cervical)): > 50 µM
IC50 (Homo sapiens, Caco-2, 72 h, CACO2 cell line (colon)): > 50 µM
IC50 (Homo sapiens, Calu-6, 72 h, CALU6 cell line (lung)): > 50 µM
IC50 (Homo sapiens, EFO-21, 72 h, EFO21 cell line (ovary)): > 50 µM
IC50 (Homo sapiens, EJ-28, 72 h, EJ28 cell line (bladder)): > 50 µM
IC50 (Homo sapiens, HCT-15, 72 h, HCT15 cell line (colon)): > 50 µM
IC50 (Homo sapiens, HCT-116, 72 h, HCT116 cell line (colon)): > 50 µM
IC50 (Homo sapiens, HEK293, 72 h, HEK293 cell line (kidney)): > 50 µM
IC50 (Homo sapiens, HL-60, 72 h, HL-60 cell line (hematological)): > 50 µM
IC50 (Homo sapiens, HT-29, 72 h, HT29 cell line (colon)): > 50 µM
IC50 (Homo sapiens, HT-1080, 72 h, HT1080 cell line (connective tissue)): > 50 µM
IC50 (Homo sapiens, HeLa, HELA cell line (cervical)): > 50 µM
IC50 (Homo sapiens, Hs-578T, HS578T cell line, breast): > 50 µM
IC50 (Homo sapiens, IGROV-1, 72 h, IGROV1 cell line (ovary)): > 50 µM
IC50 (Homo sapiens, IMR-90, 72 h, IMR90 cell line, lung): > 50 µM
IC50 (Homo sapiens, J82, 72 h, J82 cell line (bladder)): 4.88 µM
IC50 (Homo sapiens, JEG-3, 72 h, JEG3 cell line (placenta)): > 50 µM
IC50 (Homo sapiens, JIMT-1, 72 h, JIMT1 cell line (breast)): > 50 µM
IC50 (Homo sapiens, K562, 72 h, K-562 cell line (hematological)): > 50 µM
IC50 (Homo sapiens, Kasumi 1, 72 h, KASUMI-1 cell line (hematological)): > 50 µM
IC50 (Homo sapiens, L-363, 72 h, L-363 cell line (hematological)): > 50 µM
IC50 (Homo sapiens, MCF7, 72 h, MCF7 cell line (breast)): > 50 µM
IC50 (Homo sapiens, MDA-MB-231, 72 h, MDAMB231 cell line (breast)): > 50 µM
IC50 (Homo sapiens, MDA-MB-435, 72 h, MDAMB435 cell line (skin)): > 50 µM
IC50 (Homo sapiens, MDA-MB-468, 72 h, MDAMB468 cell line (breast)): > 50 µM
IC50 (Homo sapiens, MG-63, 72 h, MG63 cell line (bone)): > 50 µM
IC50 (Homo sapiens, MIA PaCa-2, 72 h, MIAPACA2 cell line (pancreas)): > 50 µM
IC50 (Homo sapiens, MV4-11, 72 h, MV4-11 cell line (hematological)): 0.38 µM
IC50 (Homo sapiens, NCI-H292, 72 h, NCIH292 cell line (lung)): > 50 µM
IC50 (Homo sapiens, NCI-H460, 72 h, NCIH460 cell line (lung)): 2.8 µM
IC50 (Homo sapiens, OVCAR-3, 72 h, OVCAR3 cell line (ovary)): > 50 µM
IC50 (Homo sapiens, OVCAR-4, 72 h, OVCAR4 cell line (ovary)): > 50 µM
IC50 (Homo sapiens, PANC-1, 72 h, PANC1 cell line (pancreas)): > 50 µM
IC50 (Homo sapiens, PC-3, 72 h, PC3 cell line (prostate)): > 50 µM
IC50 (Homo sapiens, Panc1005, 72 h, PANC1005 cell line (pancreas)): > 50 µM
IC50 (Homo sapiens, RD, RD cell line (muscle)): > 50 µM
IC50 (Homo sapiens, Ramos, RAMOS cell line (hematological)): > 50 µM
IC50 (Homo sapiens, SAOS-2, 72 h, SAOS2 cell line (bone)): > 50 µM
IC50 (Homo sapiens, SF-295, 72 h, SF295 cell line (brain)): > 50 µM
IC50 (Homo sapiens, SK-MEL-5, 72 h, SKMEL5 cell line, skin): > 50 µM
IC50 (Homo sapiens, SK-MEL-28, 72 h, SKMEL28 cell line (skin)): > 50 µM
IC50 (Homo sapiens, SK-N-AS, SKNAS cell line (brain)): > 50 µM
IC50 (Homo sapiens, SK-N-SH, SKNSH cell line (brain)): > 50 µM
IC50 (Homo sapiens, SK-OV-3, 72 h, SKOV3 cell line (ovary)): > 50 µM
IC50 (Homo sapiens, SU-DHL10, 72 h, SU-DHL-10 cell line (hematological)): > 50 µM
IC50 (Homo sapiens, SW-620, 72 h, SW620 cell line (colon)): > 50 µM
IC50 (Homo sapiens, T-24, 72 h, T24 cell line (bladder)): 3.01 µM
IC50 (Homo sapiens, TE-671, 72 h, TE671 cell line (muscle)): > 50 µM
IC50 (Homo sapiens, U2OS, U2OS cell line (bone)): > 50 µM
IC50 (Homo sapiens, UMUC3, 72 h, UMUC3 cell line (bladder)): > 50 µM
IC50 (Homo sapiens, UO-31, 72 h, UO31 cell line (kidney)): > 50 µM
IC50 (MT-3, 72 h, MT3 cell line (breast)): 3.77 µM
IC50 (NCI-H358M, NCIH358M cell line (lung)): > 50 µM
IC50 (PBMC, PBMC (hematological)): > 50 µM
